Where two headings read alike, the source gives them in different places.
Tests used:
Wolman fibroblasts [1] = experiment: Nile Red staining of neutral lipids in Wolman fibroblasts; settings: cultured with compound for 3 days
Procedure: Nile-red Staining—The cells were cultured and treated as described above in 96-well plates. On the experimental day, cells were washed two times with PBS and live-stained with 1 μM Nile-red dye solution (prepared in cell culture medium) at 100 μl/well followed by an incubation at 37° C. for 10 min. After washed twice with PBS, the cells were fixed in 3.2% paraformaldehyde in PBS at 100 μl/well 1 μg/ml Hoechst 33342 (Invitrogen) in PBS and incubation at RT for 30 min. The plate was washed twice with PBS and the images were measured in Incell2000 imaging plate reader with a FTTC filter set (Ex=480±20 nm and Ex=525±36 nm) for the neutral lipids (cholesteryl esters and triglycerides) and a DAPI filter set for Hoechst nuclear staining.
(Nile Red) Cells were cultured in the presence of delta tocopherol, alpha tocopherol and MBCD plus in combination for 3 days and then stained for neutral lipid with Nile red.
Wolman fibroblasts were treated with δ-tocopherol, α-tocopherol, methyl-β-cyclodextrin, or combinations of δ-tocopherol and methyl-β-cyclodextrin or α-tocopherol and methyl-β-cyclodextrin. […] To further characterize the effect of treatment on lipid accumulation, treated fibroblasts were evaluated using a Nile Red assay to measure neutral lipid accumulation. […] The Nile Red staining was visualized by fluorescent microscopy.

NPC1 fibroblasts = experiment: Lysosomal Ca2+ released by GPN in NPC1 fibroblasts; type: cell-based, human; settings: 40 μM, 24 hours
Description: (§1) FIG. 4. (calcium assay) Delta-T increases intracellular Ca^2+ concentration and ameliorates lysosomal calcium deficiency in NPC1 cells—Increase in the concentration of intracellular Ca^2+, an important second messenger, triggers a variety of cellular responses including lysosomal exocytosis. In NPC1 fibroblasts there is a dysregulation of calcium homeostasis, as evidenced by lysosomal Ca^2+ deficiency. […] Consistent with an earlier report, lysosomal Ca^2+ was reduced in NPC1 cells compared with that in control cells.

[2] = test system: fibroblasts derived from patients with lysosomal storage diseases; experiment: LysoTracker dye staining of enlarged lysosomes; type: cell-based, human
Procedure: On the experimental day, cells were live-stained with 100 μl/well 50 nM LysoTracker-Red DND-99 dye (Invitrogen, #L-7528) in medium at 37° C. for 1 hr followed by plate washing twice with PBS. The plate was then fixed in 100 μl/well 3.2% formaldehyde for 1 hr and washed for two times with PBS. […] After washing twice with PBS, the plates were stored at 4° C. until imaging analysis. DAPI filter set and TRITC filter set in the Incell2000 imaging plate reader were used to visualize Hoechst nuclear staining and LysoTracker staining, respectively.
FIG. 5. […] To test this hypothesis we measured the ability of delta-T to decrease acidic/lysosomal compartment size as determined by LysoTracker staining in fibroblasts derived from patients with six other diseases. Lysosomal storage occurs in these fibroblasts consists of ceroid/lipofuscin in Batten (CLN2), globotriaosylceramide in Fabry, ceramide in Farber, sphingomyelin in NPA, partially degraded heparan sulfate in Sanfilippo type B, and GM2 ganglioside in Tay-Sachs (Table S1).
The effect of various cyclodextrins, δ-tocopherol, and combinations of cyclodextrins and δ-tocopherol on lipid accumulation and lysosome size in wild-type and lysosomal storage disease fibroblasts (Wolman, Tay-Sach, Fabry, Farber, and MPSIIIB fibroblasts) was determined using Lysotracker assay. In brief, cells were treated with various combinations and concentrations of drugs followed by staining with the Lyso tracker dye which is a basophilic fluorescent probe that accumulates in acidic compartments, i.e. lysosomes, within the cell.

Wolman fibroblasts [3] = experiment: Amplex-Red cholesterol assay in Wolman fibroblasts; type: cell-based, human; settings: Wolman fibroblasts
Procedure: (§2) Amplex-Red Cholesterol Assay—Total cholesterol in patient cells was measured by the Amplex-Red Cholesterol Assay Kit (Invitrogen). The unesterified cholesterol was determined using the same kit without the enzyme […]. Esterified cholesterol was determined as the difference between the total and unesterified cholesterol values. The cells were seeded to black, tissue culture-treated 96-well, 384-well or 1536-well plates at 4000, 1000, 300 cells/well in 100, 20 or 5 μl medium by a Multidrop Combi dispenser (Thermo Scientific, Waltham, Mass.) and cultured for 24 hr. The assay plates were added with compound dilution in DMSO solution using a Pintool station (Klaypsys, San Diego, Calif.) and cultured for 3 days. The cells were washed twice manually for 96-well or 384-well plates or using a centrifugation method in which the inverted plates were placed on a stack of paper towel and centrifuged at 800 rpm for 1 min followed by addition of 7 μl/well PBS (added gently with a 45 degree angled liquid dispenser (Klaypsys). The cholesterol assay mixture from the kit was added at 100, 20 or 2.5 μl/well for 96-well, 384-well or 1536-well plates and incubated for 1 hr at 37° C. The resulted fluorescence intensity was measured with excitation of 560 (±10) and emission of 590 (±10) in a fluorescence plate reader (Tecan, Durham, N.C.).

NPC1 skin fibroblasts = experiment: Cholesterol accumulation (Amplex-red, filipin) and enlarged lysosomes (Lysotracker) in NPC1 skin fibroblasts; type: cell-based, human; settings: NPC1 skin fibroblasts; concentration dependent
Procedure: as §2

NPC cells = settings: NPC / NPC1 cells; reported; cited from earlier work
[4] = test system: NPC1, Wolman and other lysosome storage disorder fibroblasts; experiment: Electron microscopy of lysosomal ultrastructure
Procedure: Electron Microscopy—Fibroblast cells were seeded in 6-well plates at 150,000 cells/well in 5 ml medium and cultured for 1 day in the presence or absence of compounds. Cells were fixed in 2% glutaraldehyde, 0.1 M cacodylate buffer, pH 7.2 for 1 hr at room temperature and then stored at 4° C. until TEM analysis was performed. The cells were post fixed in 1% osmium tetroxide in the same buffer for 1 hour and en bloc stained with 0.5% uranyl acetate in 0.1 M acetate buffer, pH 4.2. The cells were then dehydrated in graded ethanol solutions (35%, 50%, 70%, 95% and 100%) and infiltrated overnight in epoxy resin (Poly/Bed 812, Polysciences). After adding fresh pure resin the cell plates were cured for 72 h in 55° C. After removing the polystyrene plates, suitable areas for thin sectioning were selected, cut out with a jewelry saw and glued onto empty resin stubs. About 70 nm thin sections were cut on an ultramicrotome (Leica EM UC6) and mounted on naked copper grids. The thin sections were double stained (uranyl acetate and lead citrate), examined in a Hitachi H-7650 transmission electron microscope, and images were taken using an AMT CCD camera.
The effects of δ-tocopherol and methyl-β-cyclodextrin on the ultrastructural pathology of lysosomes in lysosome storage disorder cells were investigated by electron microscopy. In brief, following treatment of wild-type and lysosome storage disorder fibroblasts with δ-tocopherol, methyl-β-cyclodextrin, or δ-tocopherol and methyl-β-cyclodextrin, the fibroblasts were fixed and embedded. Thin sections of the embedded cells were then prepared and the ultrastructural pathology was examined by electron microscopy. […] The effects of δ-tocopherol and/or methyl-β-cyclodextrin on the ultrastructural pathology of other lysosome disorder fibroblasts-Farber (FIGS. 7,8 and 10); Tay-Sachs (FIG. 8); Fabry (FIG. 8); Wolman (FIG. 9); NPA (FIG. 9); Batten (FIG. 9); MSIIB (FIG. 9)—were analyzed by electron microscopy.

NPC1-NSCs = experiment: Amplex-red cholesterol assay in NPC1 neural stem cells; type: cell-based, human
Procedure: as §2
Induced pluripotent stem cells (IPSCs) from the NPC1 skin fibroblasts were generated and differentiated into neural stem cells (NPC1-NSCs).

Wolman fibroblasts [5] = experiment: β-Hexosaminidase (HEXB) release, lysosomal exocytosis; type: cell-based, human; settings: 40 μM, 24 hours, compared with vehicle treated cells
Procedure: Measurement of β-Hexosaminidase (HEXB) Release—Fibroblasts were cultured in 24-well plates at 30,000 cells/well in 0.4 ml medium for one day at 37° C. After being washed twice with the assay buffer (DMEM with 2 mM D-mannose 6-phosphate sodium salt), the cells with 0.4 ml/well the assay buffer were incubated at 37° with 0.2 ml/well compound in assay buffer. […] The rest of assay buffer in the 24-well plate was discarded followed by addition of 0.6 ml 1% Triton-X100 in dH2O to lyse the cells. After incubation at 37° C. for 30 min. 6 μl/well cell lysate were added to the 96-well plate with 24 μl assay buffer followed by 90 μl/well 2.25 mM HEXB substrate, 4-Methylumbelliferyl N-acetyl-β-D-glucosaminide (Sigma-Aldrich, #M2133), in a 25 mM citric acid buffer at pH 4.5. The 96-well plate was then measured in the Tecan fluorescence plate reader (Ex=365±20 nm and Em=460±20 nm) after 1 hr incubation at 37° C. and addition of 100 μl/well stop solution (1 M glycine and 1 M NaOH at pH 10.5).
FIG. 3. […] We measured lysosomal exocytosis in delta-T-treated Wolman fibroblasts by determining the activity of beta-hexosaminidase (HEXB), a lysosomal enzyme, in the extracellular medium.
In brief, the level of lysosomal exocytosis was determined by measuring the level of the lysosomal enzyme HEXB secreted into the culture medium following treatment with drug.

[6] = test system: NPC1 and Wolman fibroblasts, control fibroblasts; experiment: Intracellular cytosolic Ca2+ measurement (Fluo-8); type: cell-based, human
Description: as §1

## Cc1cc(O)cc2c1O[C@](C)(CCC[C@H](C)CCC[C@H](C)CCCC(C)C)CC2 [delta-tocopherol]
Wolman fibroblasts [1]; FIG. 2
  neutral lipid accumulation (Nile red): reduces accumulation of neutral lipids
Wolman fibroblasts [1]; FIG. 2, listed as δ-tocopherol
  neutral lipid accumulation (Nile red): significantly reduced
NPC1 fibroblasts
  lysosomal Ca2+ released by GPN: significantly increased lysosomal Ca^2+
[2]; 40 μM, six fibroblast lines: Batten (CLN2), Fabry, Farber, NPA, Sanfilippo type B, Tay-Sachs
  LysoTracker staining: significantly reduced the LysoTracker staining
[2]; NPC1 and Wolman fibroblasts, 40 μM delta-T or 300 μM MBCD
  LysoTracker staining: significantly reduced LysoTracker staining
[2]; Wolman, Tay-Sach, Fabry, Farber, MPSIIIB fibroblasts, FIGS. 5A-5D
  lipid accumulation and lysosome size (Lysotracker): reduced lipid accumulation and lysosome size
Wolman fibroblasts [3]; FIGS. 1A-1C
  reduction in total cholesterol: significant reduction
Wolman fibroblasts [3]; FIGS. 1D-1F
  reduction in free cholesterol: significant reduction
NPC1 skin fibroblasts
  unesterified cholesterol accumulation (Amplex Red): dramatically reduces cellular cholesterol accumulation
NPC cells
  cholesterol efflux, accumulation or storage: increased the cholesterol efflux from NPC cells and reduced cholesterol accumulation
[4]; 40 μM, NPC1 and Wolman cells
  characteristic storage materials in lysosomes (electron microscopy): significantly reduced the characteristic storage materials
[4]; Wolman fibroblasts, FIG. 6
  abnormal lysosomal structures (electron microscopy): significantly reduced
NPC1-NSCs
  potency in NPC1 neuronal cells compared to NPC1 skin fibroblasts: weaker
NPC1-NSCs; 50 μM HBPCD, 10 μM delta-tocopherol, alone or combined, compared with 5 mM HBPCD
  cholesterol accumulation, combination therapy experiment: did not show the significant cholesterol reduction effect
NPC1-NSCs; NPC1-NSCs, FIG. 12A, read-out: IC50, Amplex-red cholesterol assay
  IC50: 18 µM
NPC1-NSCs; human NPC1 neural stem cells, values given under dosage recommendations, read-out: IC50 on reduction of cholesterol accumulation, Amplex-red cholesterol assay
  IC50: 15 µM
Wolman fibroblasts [5]
  HEXB activity in culture medium: increased
[6]
  cytosolic Ca2+: stimulated a transient increase of cytosolic Ca^2+

Reference: US11020422B2, “Cyclodextrin for the treatment of lysosomal storage diseases” (The United States of America, as represented by the …, priority 2012, dated 2021)
